Assay results: patent US4705805A, “Antithrombotic agent” (priority 1978, dated 1987)

How the values were obtained:
[1] = acute toxicity, Behrens-Karber's method; format: in vivo; conditions: in vivo; mouse, oral
Experimental: In this example, the acute toxicity of compounds of the invention is determined by Behrens-Karber's method using, 5 male dd-strain for each group weighing 20±1 g. A 0.3% CMC suspension of the test compound (concentration of the test compound: 100 mg/ml) is then orally administered to each mouse.

[2] = test system: rabbit blood platelets (platelet rich plasma), collagen-induced aggregation; assay: inhibition of platelet aggregation in rabbit platelet rich plasma (in vitro), induced by collagen; format: cell-based; conditions: rabbit PRP; for inhibition at 3 µg/mL / inhibition at 10 µg/mL / inhibition at 30 µg/mL / inhibition at 100 µg/mL / inhibition at 1 µg/mL: Oryctolagus cuniculus, Platelet, read-out: percentage of inhibition, collagen; for inhibition at 3 µg/mL: 3 μg/ml; for inhibition at 10 µg/mL: 10 μg/ml; for inhibition at 30 µg/mL: 30 μg/ml; for inhibition at 1 µg/mL: 1 μg/ml
Experimental: (§1) In this example, the inhibition of platelet aggregation in rabbit platelet rich plasma (in vitro) is tested.
(§2) In this test, 9 vol. of blood is sampled from the carotid artery of rabbits (2 to 2.5 Kg) and placed in a silicon-coated flask containing 1 vol. of 3.8% sodium citrate. The thus obtained blood is centrifuged at 1,000 rpm for 15 minutes to obtain platelet rich plasma (referred to as "PRP" hereinafter). The aggregation of blood platelets is observed using an aggregometer (made by Bryston Co.) and the degree of aggregation after the addition of aggregation promoting substances is measured by nephelometry, i.e., through increase in light transmission.
(§3) The PRP (0.9 ml) is placed in a silicon-coated cuvett of the aggregometer. Then, 0.05 ml of physiological saline solution containing various concentrations of test reagents or control reagents is added and the mixture is allowed to stand for one minute. Compounds promoting aggregation are then added and the absorbancy of the solution is measured and the percent inhibition of aggregation is calculated according to the following equation: [formula] C: Transmittancy showing the maximum percent aggregation by physiological saline solution
(§4) D: Transmittancy showing the maximum percent aggregation by sample
(§5) Test for the inhibition of platelet aggregation induced by ADP, collagen and thrombin.

[3] = test system: rabbit blood platelets (platelet rich plasma), ADP-induced aggregation; assay: inhibition of platelet aggregation in rabbit platelet rich plasma (in vitro), induced by ADP; format: cell-based; conditions: rabbit PRP, ADP 10^-5 M; for inhibition at 10 µg/mL / inhibition at 30 µg/mL / inhibition at 100 µg/mL / inhibition at 3 µg/mL: Oryctolagus cuniculus, Platelet, read-out: percentage of inhibition, ADP; for inhibition at 10 µg/mL: 10 μg/ml; for inhibition at 30 µg/mL: 30 μg/ml; for inhibition at 3 µg/mL: 3 μg/ml
Experimental: as §1, §2, §3, §4, §5

[4] = test system: human platelet rich plasma, collagen-induced aggregation; assay: inhibition of platelet aggregation in human platelet rich plasma, induced by collagen; format: cell-based; conditions: human PRP, read-out: percentage inhibition, collagen
Experimental: as §2, §3, §4
(§6) In this example, the same procedures are repeated as in Example 10 except that human platelet rich plasma is used in place of rabbit platelet rich plasma.

[5] = test system: human platelet rich plasma, ADP-induced aggregation; assay: inhibition of platelet aggregation in human platelet rich plasma, induced by ADP; format: cell-based; conditions: human PRP, read-out: percentage inhibition, ADP
Experimental: as §2, §3, §4, §6

CCOC(CN1CCN(C(=O)c2ccccc2SSc2ccccc2C(=O)N2CCN(CC(OCC)c3ccccc3)CC2)CC1)c1ccccc1 (stereo not drawn) [Compound XXIX, 2,2'-dithiobis[N'-(2-phenyl-2-ethyloxyethyl)benzpiperazide]]
LD50 [1]: ≥ 1000 mg/kg
inhibition at 3 µg/mL [2]: 0%
inhibition at 10 µg/mL [2]: 55%
inhibition at 30 µg/mL [2]: 100%
inhibition at 10 µg/mL [3]: 32%
inhibition at 30 µg/mL [3]: 43%

2,2'-dithiobis(N-naphthylbenzamide) [Compound XXXIX]
percentage of inhibition, collagen ([2]; 100 μg/ml): 12%
percentage of inhibition, ADP ([3]; 100 μg/ml): 25%

O=C(c1ccccc1SSc1ccccc1C(=O)N1CCN(C(c2ccccc2)c2ccccc2)CC1)N1CCN(C(c2ccccc2)c2ccccc2)CC1 [Compound XXXIII, 2,2'-dithiobis(N'-diphenylmethylbenzpiperazide)]
inhibition at 30 µg/mL [2]: 22%
inhibition at 30 µg/mL [3]: 16%

CCCCNC(=O)c1ccccc1SSc1ccccc1C(=O)NCCCC [Compound I, 2,2'-dithiobis(N-n-butylbenzamide)]
LD50 [1]: ≥ 300 mg/kg
inhibition at 30 µg/mL [2]: 16.5%
inhibition at 100 µg/mL ([2]; 100 μg/ml): 100%
inhibition at 30 µg/mL [3]: 13.4%
inhibition at 100 µg/mL ([3]; 100 μg/ml): 46.6%

O=C(NC1CCCCC1)c1ccccc1SSc1ccccc1C(=O)NC1CCCCC1 [Compound XXVI, 2,2'-dithiobis(N-cyclohexylbenzamide)]
LD50 [1]: ≥ 1000 mg/kg
inhibition at 30 µg/mL [2]: 25%
inhibition at 30 µg/mL [3]: 30%

CCCCCCCCCCCCCCCC(=O)OC(C)CNC(=O)c1ccccc1SSc1ccccc1C(=O)NCC(C)OC(=O)CCCCCCCCCCCCCCC (stereo not drawn) [Compound XXIV, 2,2'-dithiobis(N-2-hexadecanoyloxypropylbenzamide)]
inhibition at 30 µg/mL [2]: 19%
inhibition at 100 µg/mL ([2]; 100 μg/ml): 86%
inhibition at 30 µg/mL [3]: 0%
inhibition at 100 µg/mL ([3]; 100 μg/ml): 59%

Nc1ncnc2c1ncn2[C@@H]1O[C@H](CO)[C@@H](O)[C@H]1O [adenosine, reference compound]
inhibition at 100 µg/mL ([3]; 100 μg/ml): 39%

CN1CCN(C(=O)c2ccccc2SSc2ccccc2C(=O)N2CCN(C)CC2)CC1 [Compound XXXII, 2,2'-dithiobis(N'-methylbenzpiperazide)]
inhibition at 1 µg/mL [2]: 2%
inhibition at 3 µg/mL [2]: 59%
inhibition at 10 µg/mL [2]: 90%
inhibition at 30 µg/mL [2]: 100%
inhibition at 3 µg/mL [3]: 26%
inhibition at 10 µg/mL [3]: 62%
inhibition at 30 µg/mL [3]: 100%
inhibition at 30 µg/mL ([4]; 30 μg/ml): 34%
inhibition at 100 µg/mL ([4]; 100 μg/ml): 100%
inhibition at 30 µg/mL ([5]; 30 μg/ml): 15%
inhibition at 100 µg/mL ([5]; 100 μg/ml): 60%

CCCCCCCCCCCCCCCC(=O)OCCCNC(=O)c1ccccc1SSc1ccccc1C(=O)NCCCOC(=O)CCCCCCCCCCCCCCC [Compound XXII, 2,2'-dithiobis(N-hexadecanoyloxypropylbenzamide)]
inhibition at 30 µg/mL [2]: 0%
inhibition at 100 µg/mL ([2]; 100 μg/ml): 18%
inhibition at 30 µg/mL [3]: 0%
inhibition at 100 µg/mL ([3]; 100 μg/ml): 40%

O=C(c1ccccc1SSc1ccccc1C(=O)N1CCN(CC=Cc2ccccc2)CC1)N1CCN(CC=Cc2ccccc2)CC1 [Compound XXX, 2,2'-dithiobis[N'-(3-phenyl-propene-1-yl)benzpiperazide]]
LD50 [1]: ≥ 1000 mg/kg
inhibition at 30 µg/mL [2]: 40%
inhibition at 30 µg/mL [3]: 17%

CCCCCCCCCCCC(=O)OCCCNC(=O)c1ccccc1SSc1ccccc1C(=O)NCCCOC(=O)CCCCCCCCCCC [Compound XXI, 2,2'-dithiobis(N-dodecanoyloxypropylbenzamide)]
inhibition at 30 µg/mL [2]: 0%
inhibition at 100 µg/mL ([2]; 100 μg/ml): 33%
inhibition at 30 µg/mL [3]: 5%
inhibition at 100 µg/mL ([3]; 100 μg/ml): 32%

CCCCCCCCCCCC(=O)OC(C)CNC(=O)c1ccccc1SSc1ccccc1C(=O)NCC(C)OC(=O)CCCCCCCCCCC (stereo not drawn) [Compound XXIII, 2,2'-dithiobis(N-2-dodecanoyloxypropylbenzamide)]
inhibition at 30 µg/mL [2]: 52%
inhibition at 100 µg/mL ([2]; 100 μg/ml): 100%
inhibition at 30 µg/mL [3]: 19%
inhibition at 100 µg/mL ([3]; 100 μg/ml): 93%

O=C(c1ccccc1SSc1ccccc1C(=O)N(c1ccccc1)c1ccccc1)N(c1ccccc1)c1ccccc1 [Compound XIII, 2,2'-dithiobis(N-diphenylbenzamide)]
inhibition at 30 µg/mL [2]: 12.2%
inhibition at 100 µg/mL ([2]; 100 μg/ml): 47%
inhibition at 30 µg/mL [3]: 16%
inhibition at 100 µg/mL ([3]; 100 μg/ml): 60%

O=C(NC1CCC(O)CC1)c1ccccc1SSc1ccccc1C(=O)NC1CCC(O)CC1 (stereo not drawn) [Compound XXXVI, 2,2'-dithiobis[N-(4-hydroxycyclohexyl)benzamide]]
inhibition at 30 µg/mL [2]: 8%
inhibition at 100 µg/mL ([2]; 100 μg/ml): 95%
inhibition at 100 µg/mL ([3]; 100 μg/ml): 35%

O=C(NCCCCO)c1ccccc1SSc1ccccc1C(=O)NCCCCO [Compound XVII, 2,2'-dithiobis(N-4-hydroxybutylbenzamide)]
inhibition at 3 µg/mL [2]: 0%
inhibition at 10 µg/mL [2]: 97%
inhibition at 30 µg/mL [2]: 100%
inhibition at 100 µg/mL ([2]; 100 μg/ml): 100%
inhibition at 30 µg/mL [3]: 45%
inhibition at 100 µg/mL ([3]; 100 μg/ml): 100%

O=C(NCC(O)c1ccccc1)c1ccccc1SSc1ccccc1C(=O)NCC(O)c1ccccc1 (stereo not drawn) [Compound XXXVIII, 2,2'-dithiobis(N-2-hydroxy-2-phenylethylbenzamide)]
inhibition at 100 µg/mL ([2]; 100 μg/ml): 19%
inhibition at 100 µg/mL ([3]; 100 μg/ml): 12%

CCOCCCNC(=O)c1ccccc1SSc1ccccc1C(=O)NCCCOCC [Compound XXXV, 2,2'-dithiobis(N-3-ethyloxypropylbenzamide)]
inhibition at 10 µg/mL [2]: 15%
inhibition at 30 µg/mL [2]: 31%
inhibition at 100 µg/mL ([2]; 100 μg/ml): 100%
inhibition at 100 µg/mL ([3]; 100 μg/ml): 35%

CCCCCCCCCCCCNC(=O)c1ccccc1SSc1ccccc1C(=O)NCCCCCCCCCCCC [Compound VI, 2,2'-dithiobis(N-dodecylbenzamide)]
inhibition at 30 µg/mL [2]: 0%
inhibition at 100 µg/mL ([2]; 100 μg/ml): 89%
inhibition at 30 µg/mL [3]: 0%
inhibition at 100 µg/mL ([3]; 100 μg/ml): 35%

CC(CCc1ccccc1)NC(=O)c1ccccc1SSc1ccccc1C(=O)NC(C)CCc1ccccc1 (stereo not drawn) [Compound XIV, 2,2'-dithiobis[N-(1-methyl-3-phenylpropyl)]benzamide]
inhibition at 30 µg/mL [2]: 24%
inhibition at 30 µg/mL [3]: 28%

O=C(NCCCO)c1ccccc1SSc1ccccc1C(=O)NCCCO [Compound XVI, 2,2'-dithiobis(N-3-hydroxypropylbenzamide)]
inhibition at 1 µg/mL [2]: 8%
inhibition at 3 µg/mL [2]: 50%
inhibition at 10 µg/mL [2]: 78%
inhibition at 100 µg/mL ([2]; 100 μg/ml): 100%
inhibition at 3 µg/mL [3]: 42%
inhibition at 10 µg/mL [3]: 64%
inhibition at 100 µg/mL ([3]; 100 μg/ml): 88%

CCCCCCCCCCCCCCCC(=O)OCCNC(=O)c1ccccc1SSc1ccccc1C(=O)NCCOC(=O)CCCCCCCCCCCCCCC [Compound XX, 2,2'-dithiobis(N-2-hexadecanoyloxyethylbenzamide)]
inhibition at 30 µg/mL [2]: 0%
inhibition at 100 µg/mL ([2]; 100 μg/ml): 33%
inhibition at 30 µg/mL [3]: 0%
inhibition at 100 µg/mL ([3]; 100 μg/ml): 23%

O=C(Nc1cccc(Cl)c1)c1ccccc1SSc1ccccc1C(=O)Nc1cccc(Cl)c1 [Compound XI, 2,2'-dithiobis(N-m-chlorophenylbenzamide)]
inhibition at 10 µg/mL [2]: 0%
inhibition at 30 µg/mL [2]: 99%
inhibition at 100 µg/mL ([2]; 100 μg/ml): 100%
inhibition at 10 µg/mL [3]: 0%
inhibition at 30 µg/mL [3]: 29%
inhibition at 100 µg/mL ([3]; 100 μg/ml): 96%

CCCCCCCCCCCCCCCCCCNC(=O)c1ccccc1SSc1ccccc1C(=O)NCCCCCCCCCCCCCCCCCC [Compound VII, 2,2'-dithiobis(N-octadecylbenzamide)]
inhibition at 30 µg/mL [2]: 0%
inhibition at 100 µg/mL ([2]; 100 μg/ml): 38%
inhibition at 30 µg/mL [3]: 0%
inhibition at 100 µg/mL ([3]; 100 μg/ml): 10%

O=C(NCN1CCCCC1)c1ccccc1SSc1ccccc1C(=O)NCN1CCCCC1 [Compound XXXVII, 2,2'-dithiobis(N-piperidinylmethylbenzamide)]
inhibition at 100 µg/mL ([3]; 100 μg/ml): 20%

COC(CNC(=O)c1ccccc1SSc1ccccc1C(=O)NCC(OC)OC)OC [Compound XXXIV, 2,2'-dithiobis(N-2,2-di-methoxyethylbenzamide)]
inhibition at 3 µg/mL [2]: 21%
inhibition at 10 µg/mL [2]: 87%
inhibition at 30 µg/mL [2]: 100%
inhibition at 3 µg/mL [3]: 21%
inhibition at 10 µg/mL [3]: 35%
inhibition at 30 µg/mL [3]: 83%
